Results taken from patent US9771326B2, “S1P and/or ATX modulating agents” (BIOGEN MA INC., priority 2012, dated 2017).

Each compound was assayed against S1P3 (Homo sapiens, UniProt Q99500) (assay: S1P receptor calcium flux assay, agonist format (S1P3)). Settings: FLIPR TETRA.
Assay type: cell-based
Description: (§1) S1P Receptor Activity Assays Agonist percentage activation determinations were obtained by assaying sample compounds and referencing the Emax control for each receptor profiled. Antagonist percentage inhibition determinations were obtained by assaying sample compounds and referencing the control EC80 wells for each receptor profiled. The samples were run using a “Single Addition” assay protocol for the agonist and antagonist assay run. The protocol design was as follows: Compound Preparation Master stock solution: Unless specified otherwise, all sample compounds were diluted in 100% anhydrous DMSO including all serial dilutions. All control wells contained identical solvent final concentrations as did the sample compound wells. Compound plate for assay: The sample compounds were transferred from a master stock solution into a daughter plate that was used in the assay. Each sample compound was diluted into assay buffer (1×HBSS with 20 mM HEPES and 2.5 mM Probenecid) at an appropriate concentration to obtain final concentrations. […] Assay was read for 180 seconds using the FLIPR^TETRA (This assay run added sample compounds and reference agonist to respective wells). […] Once baseline corrections were processed, maximum fluorescence values were exported and data manipulated to calculate percentage activation, percentage inhibition and Z′.

Chain of S1P3 (Q99500 whole entry): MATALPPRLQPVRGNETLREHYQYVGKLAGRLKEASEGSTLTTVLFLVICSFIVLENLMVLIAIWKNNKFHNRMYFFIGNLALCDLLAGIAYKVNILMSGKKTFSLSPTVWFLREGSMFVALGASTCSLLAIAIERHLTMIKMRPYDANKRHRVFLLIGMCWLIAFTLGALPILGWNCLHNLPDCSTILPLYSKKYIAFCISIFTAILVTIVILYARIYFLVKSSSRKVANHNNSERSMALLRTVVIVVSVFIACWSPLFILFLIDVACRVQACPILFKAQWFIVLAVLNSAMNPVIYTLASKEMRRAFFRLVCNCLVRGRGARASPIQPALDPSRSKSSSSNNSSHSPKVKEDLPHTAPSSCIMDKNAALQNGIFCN

| Structure (SMILES) | EC50 |
| --- | --- |
| CC(C)(C)[C@H]1CC[C@H](Oc2cnc(-c3cccc(CNCCC(=O)O)c3)nc2)CC1 [Example 50, 3-(3-(5-(trans-4-tert-Butylcyclohexyloxy)pyrimidin-2-yl)benzylamino)propanoic acid] | 50 to 5000 nM |

These compounds were tested on A2B5+ OPCs (assay: OPC differentiation assay). Settings: 72 h; rat OPCs in CNTF/T3 media, 3-day incubation, MSD analysis; read-out: positive in the OPC assay (concentration).
Assay type: cell-based, Sprague Dawley rats
Experimental: OPC Differentiation Assay
Enriched populations of oligodendrocytes were grown from post-natal day 2 (P2) female Sprague Dawley rats. The forebrain was dissected out and placed in Hank's buffered saline solution (HBSS; Invitrogen, Grand Island, N.Y.). The tissue was cut into 1 mm fragments and incubated at 37° C. for 15 minutes in 0.01% trypsin and 10 μg/mL DNase. Dissociated cells were plated on poly-L-lysine-coated T75 tissue culture flasks and grown at 37° C. for 10 days in Dulbecco's modified Eagle's medium (DMEM) with 20% fetal calf serum (Invitrogen). A2B5^+ OPCs were collected by shaking the flask overnight at 200 rpm and 37° C., resulting in a 95% pure population.
For the differentiation assay, 2 μM and 20 μM antagonist or the same concentrations of vehicle (DMSO) were applied to OPCs cultured in CNTF/T3 containing media. After a 3-day incubation, after a 3-day incubation, cell were lysed and then subjected to MSD (Meso Scale Discovery-R) analysis. EC50 was calculated by Prism using a nonlinear sigmoidal dose-response curve cells. Alternatively, cells were lysed in 80 μL lysis buffer (50 mM HEPES [4-(2-hydroxyethyl)-1-piperazine ethanesulfonic acid], pH 7.5, 150 mM NaCl, 1.5 mM MgCl2, 1 mM ethylene glycol tetraacetic acid [EGTA], 1% Triton X-100 and 10% glycerol) for 30 minutes at 4° C. After centrifugation at 14,000 g for 15 minutes, the supernatants were boiled in Laemmli sample buffer, subjected to 4-20% SDS-PAGE, and analyzed by Western blotting with anti-MBP, anti-myelin-associated glycoprotein (MAG), or anti-beta actin antibodies. The secondary antibodies used were anti-mouse IgG-HRP (horseradish peroxidase) and anti-rabbit IgG-HRP respectively.

| Structure (SMILES) | minimal effective concentration |
| --- | --- |
| CC(C)(C)[C@H]1CC[C@H](Oc2cccc(-c3cccc(CNCCC(=O)O)c3)c2)CC1 [Example 4, 3-(((3′-((trans-4-(tert-Butyl)cyclohexyl)oxy)-[1,1′-biphenyl]-3-yl)methyl)amino)propanoic acid] | 0.5 to 5 µM |
| CC(C)(C)[C@H]1CC[C@H](Oc2ccc(-c3cccc(CNC4CC(C(=O)O)C4)c3)cc2)CC1 (stereo partly drawn) [Example 10, 3-(((4′-((trans-4-(tert-Butyl)cyclohexyl)oxy)-[1,1′-biphenyl]-3-yl)methyl)amino)cyclobutanecarboxylic acid] | 0.5 to 5 µM |
| CC(C)(C)[C@H]1CC[C@H](Oc2ccc(-c3ccc(CNCCC(=O)O)cc3)cc2)CC1 [Example 24, 3-((4′-(trans-4-tert-Butylcyclohexyloxy)biphenyl-4-yl)methylamino)propanoic acid] | 0.5 to 5 µM |
| CC(C)(C)[C@H]1CC[C@H](Oc2ccc(-c3csc(CNCCC(=O)O)n3)cc2)CC1 [Example 62, 3-(((4-(4-((trans-4-(tert-Butyl)cyclohexyl)oxy)phenyl)thiazol-2-yl)methyl)amino)propanoic acid] | 0.5 to 5 µM |
| CC(C)(C)[C@H]1CC[C@H](Oc2ccc(-n3cc(CN4CCC(C(=O)O)CC4)nn3)cc2)CC1 [Example 93, 1-((1-(4-(trans-4-tert-Butylcyclohexyloxy)phenyl)-1H-1,2,3-triazol-4-yl)methyl)piperidine-4-carboxylic acid] | 0.5 to 5 µM |
| CC(C)(C)[C@H]1CC[C@H](Oc2ccc(-c3cccc(CNCCC(=O)O)c3F)cc2)CC1 [Example 95] | 0.5 to 5 µM |
| O=C(O)C1CCN(Cc2cccc(-c3ccc(OC4CCC5(CCC5)CC4)cc3)c2F)C1 (centres unmarked) [Example 106, 1-((2-fluoro-4′-(spiro[3.5]nonan-7-yloxy)-[1,1′-biphenyl]-3-yl)methyl)pyrrolidine-3-carboxylic acid] | 0.5 to 5 µM |
| O=C(O)C1CCN(Cc2cccc(-c3ccc(OC4CCC5(CCCC5)CC4)cc3)c2F)C1 (centres unmarked) [Example 114, 1-((2-fluoro-4′-(spiro[4.5]decan-8-yloxy)-[1,1′-biphenyl]-3-yl)methyl)pyrrolidine-3-carboxylic acid] | 0.5 to 5 µM |
| O=C(O)C1CCCN(Cc2cccc(-c3ccc(OC4CCC5(CCCC5)CC4)cc3)c2F)C1 (centres unmarked) [Example 115, 1-((2-fluoro-4′-(spiro[4.5]decan-8-yloxy)-[1,1′-biphenyl]-3-yl)methyl)piperidine-3-carboxylic acid] | 0.5 to 5 µM |
| CC(C)[C@H]1CC[C@H](Oc2ccc(-c3cccc(CN4CCC(C(=O)O)C4)c3F)cc2)CC1 (some centres unmarked) [Example 138, 1-((2-fluoro-4′-(((1r,4r)-4-isopropylcyclohexyl)oxy)-[1,1′-biphenyl]-3-yl)methyl)pyrrolidine-3-carboxylic acid] | 0.5 to 5 µM |
| CC(C)[C@H]1CC[C@H](Oc2ccc(-c3cccc(CN4CCCC(C(=O)O)C4)c3F)cc2)CC1 (some centres unmarked) [Example 139, 1-((2-fluoro-4′-(((1r,4r)-4-isopropylcyclohexyl)oxy)-[1,1′-biphenyl]-3-yl)methyl)piperidine-3-carboxylic acid] | 0.5 to 5 µM |
| CC(C)[C@H]1CC[C@H](Oc2ccc(-c3cccc(CN4CCC(C(=O)O)CC4)c3F)cc2)CC1 [Example 140, 1-((2-fluoro-4′-(((1r,4r)-4-isopropylcyclohexyl)oxy)-[1,1′-biphenyl]-3-yl)methyl)piperidine-4-carboxylic acid] | 0.5 to 5 µM |

What follows are compounds tested against T1, S1P4 (Homo sapiens, UniProt O95977) (assay: S1P receptor calcium flux assay, agonist format (S1P4)). Settings: FLIPR TETRA.
T1 sequence (O95977 1-384): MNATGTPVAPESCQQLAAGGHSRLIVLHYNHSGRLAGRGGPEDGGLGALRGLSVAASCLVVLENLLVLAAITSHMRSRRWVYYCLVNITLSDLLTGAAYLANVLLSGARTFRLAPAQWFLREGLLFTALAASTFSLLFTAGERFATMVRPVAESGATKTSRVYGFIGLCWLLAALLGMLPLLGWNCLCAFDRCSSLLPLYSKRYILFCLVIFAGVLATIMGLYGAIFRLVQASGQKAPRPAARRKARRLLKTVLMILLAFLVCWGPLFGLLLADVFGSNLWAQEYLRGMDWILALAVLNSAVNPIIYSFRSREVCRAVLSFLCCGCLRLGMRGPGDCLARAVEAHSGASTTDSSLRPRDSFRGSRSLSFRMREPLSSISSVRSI
Assay type: cell-based
Description: as §1

| Structure (SMILES) | S1P4 agonist activity EC50 |
| --- | --- |
| CC(C)(C)[C@H]1CC[C@H](n2nc(-c3cccc(CNCCC(=O)O)c3)ccc2=O)CC1 [Example 48, 3-((3-(1-(trans-4-(tert-butyl)cyclohexyl)-6-oxo-1,6-dihydropyridazin-3-yl)benzyl)amino)propanoic acid] | 1 to 5000 nM |
